Here are results for three compounds from the NIST ThermoML archive (doi:10.1021/je600580r).

Series [1] can be described thus: Molar enthalpy of transition or fusion. Particulars: Crystal; DSC.
A short description of series [2]: molar enthalpy of vaporization or sublimation. The conditions noted are these: Liquid, DSC.
For series [3] the following is noted: Crystal; DTA.

± gives the expanded uncertainty stated by the source.

In the case of `CCNc1nc(NCC)nc(SC)n1` [2-methylthio-4,6-bis(ethylamino)-1,3,5-triazine], the “Molar enthalpy of transition or fusion” value in series [1] came to 5.74 ± 0.478 kcal/mol. In addition, the molar enthalpy in series [2] (461 K) came out at 21 ± 1.91 kcal/mol. Also, in series [3], the Normal melting temperature stood at 77.4 ± 0.5 °C.
Take `CCNc1nc(NC(C)(C)C)nc(SC)n1`: the “Molar enthalpy of transition or fusion” value in series [1] was 5.02 ± 0.956 kcal/mol. Besides, the molar enthalpy in series [2] (467 K) worked out at 20.8 ± 2.39 kcal/mol. Moreover, the Normal melting temperature in series [3] worked out at 99.2 ± 0.5 °C.
As for `CCNc1nc(NC(C)C)nc(SC)n1` [2-methylthio-4-ethylamino-6-isopropylamino-1,3,5-triazine], the “Molar enthalpy of transition or fusion” value in series [1] is 6.21 ± 0.956 kcal/mol. In series [2] (466 K), the molar enthalpy turned out to be 21.7 ± 1.91 kcal/mol. Further, in series [3], the Normal melting temperature turned out to be 83.6 ± 0.5 °C.
